Reference: US4016159A, “Acylamino-cephem-carboxylic acids containing an amidino or guanidino group in the molecule” (Hoechst Aktiengesellschaft, priority 1973, dated 1977)
Converted amounts (≈) assume the structure as drawn. Counter-ions that a name gives are not always drawn.

What was measured:
Format in all cases: cell-based
[1] = system: Staphylococcus aureus SG 511; assay: Minimum inhibition concentration (MIC), Table 5; conditions: for Minimum inhibition concentration (MIC): Germ: Staphylococcus aureus SG 511; for MIC: Staphylococcus aureus, SG511, Germ: Staphylococcus aureus SG 511, read-out: Minimum inhibition concentration (MIC)
Text: (§1) Minimum inhibition concentration (MIC) in γ/ml
Germ: Staphylococcus aureus SG 511

Streptococcus D = assay: Minimum inhibition concentration (MIC), Table 4; conditions: Streptococcus, Germ: Streptococcus D; read-out: Minimum inhibition concentration (MIC)
Text: as §1

Streptococcus pyogenes A = assay: Minimum inhibition concentration (MIC), Table 3; conditions: Germ: Streptococcus pyogenes A; read-out: Minimum inhibition concentration MIC
Text: Minimum inhibition concentration MIC in γ/ml
Germ: Streptococcus pyogenes A

[2] = system: Staphylococcus aureus 285; assay: Minimum inhibition concentration (MIC), Table 1; conditions: Staphylococcus aureus, 285, Germ: Staphylococcus aureus 285; read-out: Minimum inhibition concentration (MIC)
Text: as §1
Germ: Staphylococcus aureus 285

SMILES	Minimum inhibition concentration (MIC) ([1]; hydrochloride) [µg/mL]	MIC (Streptococcus D) [µg/mL]	MIC (Streptococcus pyogenes A) [µg/mL]	MIC [2] [µg/mL]	MIC [1] [µg/mL]	Minimum inhibition concentration (MIC) [1] [µg/mL]
N=C(N)c1ccc(OCC(=O)NC2C(=O)N3C(C(=O)O)=C(CSC4=NCCS4)CSC23)cc1 (centres unmarked) [Example 30, 3-[(Δ2-thiazolidine-2-yl)-thiomethyl]-7-(4-amidinophenoxyacetamido)-Δ3-cephem-4-carboxylic acid]	–	10 to 50 (≈ 19.7 to 98.5 µM)	0.000391 to 0.0078 (≈ 0.00077 to 0.0154 µM)	0.5 to 1.25 (≈ 0.985 to 2.46 µM)	–	–
Cc1csc(SCC2=C(C(=O)O)N3C(=O)C(NC(=O)Cc4ccc(C5=NCCN5)cc4)C3SC2)n1 (centres unmarked) [Example 10, 3-[(4-methyl-thiazole-2-yl)-thiomethyl]-7-[4-(imidazoline-2-yl)-phenylacetamido]-Δ 3-cephem-4-carboxylic acid]	–	10 to 50 (≈ 18.9 to 94.4 µM)	0.000391 to 0.0078 (≈ 0.000738 to 0.0147 µM)	0.5 to 1.25 (≈ 0.944 to 2.36 µM)	–	–
CCCCc1nnc(SCC2=C(C(=O)O)N3C(=O)C(NC(=O)Cc4ccc(C5=NCCCN5)cc4)C3SC2)o1 (centres unmarked) [Example 81, 3-[(5-n-butyl-1,3,4-oxadiazole-2-yl)-thiomethyl]-7-[4-(1,4,5,6-tetrahydropyrimide-2-yl)-phenyl-acetamido]-Δ 3-cephem-4-carboxylic acid]	–	10 to 50 (≈ 17.5 to 87.6 µM)	0.008 to 0.0156 (≈ 0.014 to 0.0273 µM)	1.6 to 2.5 (≈ 2.8 to 4.38 µM)	–	–
N=C(N)c1ccc(CC(=O)NC2C(=O)N3C(C(=O)O)=C(CSc4nnco4)CSC23)cc1 (centres unmarked) [Example 61, 3-[(1,3,4-oxadiazole-2-yl)-thiomethyl]-7-(4-amidino-phenylacetamido)-Δ 3-cephem-4-carboxylic acid]	–	10 to 50 (≈ 21.1 to 105 µM)	0.008 to 0.0156 (≈ 0.0169 to 0.0329 µM)	0.5 to 1.25 (≈ 1.05 to 2.63 µM)	–	–
CCCc1nnc(SCC2=C(C(=O)O)N3C(=O)C(NC(=O)Cc4ccc(C5=NCCCN5)cc4)C3SC2)o1 (centres unmarked) [Example 82, 3-[(5-n-propyl-1,3,4-oxadiazole-2-yl)-thiomethyl]-7-[4-(1,4,5,6-tetrahydropyrimide-2-yl)-phenylacetamido-]-Δ 3-cephem-4-carboxylic acid]	–	10 to 50 (≈ 18 to 89.8 µM)	0.008 to 0.0156 (≈ 0.0144 to 0.028 µM)	0.5 to 1.25 (≈ 0.898 to 2.25 µM)	–	–
Cc1nnc(SCC2=C(C(=O)O)N3C(=O)C(NC(=O)COc4ccc(C5=NCCN5)cc4)C3SC2)s1 (centres unmarked) [Example 75, 3-[(5-methyl-1,3,4-thiadiazole-2-yl)-thiomethyl]-7-[4-(imidazoline-2-yl)-phenoxyacetamido]-Δ 3-cephem-4-carboxylic acid]	–	10 to 50 (≈ 18.3 to 91.5 µM)	0.000391 to 0.0078 (≈ 0.000715 to 0.0143 µM)	0.5 to 1.25 (≈ 0.915 to 2.29 µM)	–	–
Cc1cc(C)nc(SCC2=C(C(=O)O)N3C(=O)C(NC(=O)Cc4ccc(C5=NCCCN5)cc4)C3SC2)n1 (centres unmarked) [Example 98]	–	10 to 50 (≈ 18.1 to 90.5 µM)	0.000391 to 0.0078 (≈ 0.000707 to 0.0141 µM)	0.5 to 1.25 (≈ 0.905 to 2.26 µM)	–	–
Cc1csc(SCC2=C(C(=O)O)N3C(=O)C(NC(=O)Cc4ccc(C(=N)N)cc4)C3SC2)n1 (centres unmarked) [Example 5, 3-[(4-methyl-thioazole-2-yl)-thiomethyl]-7-(4-amidinophenyl-acetamido)-Δ3-cephem-4-carboxylic acid]	–	10 to 50 (≈ 19.9 to 99.3 µM)	–	0.156 to 0.391 (≈ 0.31 to 0.776 µM)	0.0625 to 0.078 (≈ 0.124 to 0.155 µM)	–

More lines, now with the values ahead:

Minimum inhibition concentration (MIC) ([1]; hydrochloride) [µg/mL]	MIC (Streptococcus D) [µg/mL]	MIC (Streptococcus pyogenes A) [µg/mL]	MIC [2] [µg/mL]	MIC [1] [µg/mL]	Minimum inhibition concentration (MIC) [1] [µg/mL]	SMILES
0.0625 to 0.078	10 to 50	0.000391 to 0.0078	–	–	–	Cc1nnc(SCC2=C(C(=O)O)N3C(=O)C(NC(=O)COc4ccc(C(=N)N)cc4)C3SC2)s1 (centres unmarked) [Example 35, 3-[(5-methyl-1,3,4-thiadiazole-2-yl)-thiomethyl]-7-[4-amidinophenoxy-acetamido]-Δ 3-cephem-4-carboxylic acid hydrochloride]
–	10 to 50 (≈ 19.2 to 95.9 µM)	–	0.5 to 1.25 (≈ 0.959 to 2.4 µM)	0.0625 to 0.078 (≈ 0.12 to 0.15 µM)	–	N=C(N)c1ccc(OCC(=O)NC2C(=O)N3C(C(=O)O)=C(CSc4nnc(N)s4)CSC23)cc1 (centres unmarked) [Example 49, 3-[(5-amino-1,3,4-thiadiazole-2-yl)-thiomethyl]-7-(4-amidinophenoxyacetamido)-Δ 3-cephem-4-carboxylic acid]
–	–	–	0.5 to 1.25 (≈ 0.96 to 2.4 µM)	–	0.0196 to 0.0391	Cc1nnc(SCC2=C(C(=O)O)N3C(=O)C(NC(=O)COc4ccc(C(=N)N)cc4)C3SC2)s1 (centres unmarked) [Example 46, 3-[(5-methyl-1,3,4-thiadiazole-2-yl)-thiomethyl]-7-[4-amidinophenoxyacetamido]-Δ 3-cephem-4-carboxylic acid]
–	0.196 to 6.25 (≈ 0.341 to 10.9 µM)	0.000391 to 0.0078 (≈ 0.00068 to 0.0136 µM)	0.5 to 1.25 (≈ 0.87 to 2.18 µM)	–	–	CCCc1nnc(SCC2=C(C(=O)O)N3C(=O)C(NC(=O)COc4ccc(C5=NCCN5)cc4)C3SC2)s1 (centres unmarked) [Example 37, 3-[(5-n-propyl-1,3,4-thiadiazole-2-yl)-thiomethyl]-7-[4-(imidazoline-2-yl)-phenoxyacetamido]-Δ 3-cephem-4-carboxylic acid]
–	10 to 50 (≈ 17.5 to 87.3 µM)	0.008 to 0.0156 (≈ 0.014 to 0.0272 µM)	0.5 to 1.25 (≈ 0.873 to 2.18 µM)	–	–	CCCc1nnc(SCC2=C(C(=O)O)N3C(=O)C(NC(=O)Cc4ccc(C5=NCCCN5)cc4)C3SC2)s1 (centres unmarked) [Example 79, 3-[(5-n-propyl-1,3,4-thiadiazole-2-yl)-thiomethyl]-7-[4-(1,4,5,6-tetrahydropyrimide-2-yl)-phenylacetamido]-Δ 3-cephem-4-carboxylic acid]
–	10 to 50 (≈ 19.8 to 99.1 µM)	–	0.5 to 1.25 (≈ 0.991 to 2.48 µM)	0.0625 to 0.078 (≈ 0.124 to 0.155 µM)	–	N=C(N)Nc1ccc(CC(=O)NC2C(=O)N3C(C(=O)O)=C(CSc4nccs4)CSC23)cc1 (centres unmarked) [Example 8]
